Experimental findings from patent US20170298051A1, “ACTIVATOR OF ADIPONECTIN RECEPTOR” (THE UNIVERSITY OF TOKYO, priority 2013, published 2017) are described below.

The test system of this assay is AMPK. Put plainly: AMPK phosphorylation in vivo in skeletal muscle and liver. The following applies: intravenous 50 mg/kg. On the set-up: species or system mice. The procedure: Immunoblotting was carried out according to the method described previously by which the livers, muscles or white adipose tissues were freeze-clamped in liquid nitrogen in situ^b,d,e.
The procedures used for immunoprecipitation and immunoblotting have been described previously^a,f. Muscle, liver or cell lysates were incubated with 60 μl of protein G sepharose linked to antibodies against phosphotyrosine (4G10) (Merck Millipore). Beads were then washed, the resultant was boiled for 5 min in a sample buffer and the immunoprecipitates were subjected to immunoblotting. Phosphorylation and/or the protein levels of AMPKα (Cell signaling #2535, #2532), IRβ (Upstate 05-321, Santa Cruz sc-711), AKT (Cell signaling #9271, #9272), GSK3 (Cell signaling #5558, #9315) and tubulin (NeoMarkers RB-9281-PO) were determined as described^a,g,h.

Take `O=C(COc1ccc(C(=O)c2ccccc2)cc1)NC1CCN(Cc2ccccc2)CC1` [Compound 73, 2-(4-benzoyl-phenoxy)-N-(1-benzylpiperidin-4-yl)acetamide]: the “phosphorylation of AMPK in skeletal muscle and liver” value is recorded as “but not in Adipor1/r2 double-knockout mice” (Adipor1/r2 double-knockout mice) and “significantly induced phosphorylation of AMPK” (wild-type (WT) mice).
